Activity calls are given as the source filed them. The calls are words filed in the database; no cut-off is given here.
Experiments:
[1] = molecular target: Transient receptor potential cation channel subfamily A member 1 (Rattus norvegicus, UniProt Q6RI86); assay: Antagonist activity at rat TRPA1 by electrophysiology assay
[2] = Drug uptake in Sprague-Dawley rat skin epidermal layer at 0.68 mg applied topically measured after 24 hrs; assay type: ADME, tissue-based, Skin epidermis; conditions: topical or ocular, read-out: Drug uptake
[3] = Drug uptake in Sprague-Dawley rat skin dermal layer at 0.68 mg applied topically measured after 24 hrs; assay type: ADME, tissue-based, Dermis; conditions: topical or ocular, read-out: Drug uptake
[4] = molecular target: T1, Transient receptor potential cation channel subfamily A member 1 (Homo sapiens, UniProt O75762); assay: Antagonist activity at full length human TRPA1 at holding potential of 15 mV measured after 1 min by PatchXpress electrophysiology assay
[5] = molecular target: T1, Transient receptor potential cation channel subfamily A member 1; assay: Antagonist activity at full length human TRPA1 expressed in 293-T-REx cells by FLIPR assay
[6] = Stability in human liver microsomes assessed as metabolic turnover number at 10 uM after 15 mins by LC-MS/UV analysis; assay type: ADME, microsome; conditions: read-out: Stability
[7] = Passive permeability of the compound in RRCK cells; assay type: ADME, cell-based, Canis lupus familiaris, MDCKII-LE; conditions: dog, MDCK; read-out: permeability
[8] = Lipophilicity, log D of the compound; assay type: physicochemical; conditions: octanol/water
[9] = Ratio of permeability from basolateral to apical side over apical to basolateral side in RRCK cells expressing MDR1; assay type: ADME, cell-based, Canis lupus familiaris; conditions: dog, mdckii-le
Rattus norvegicus [10] = assay: Suppression of cinnamaldehyde-induced flare response in Sprague-Dawley rat skin at 50 to 100 mg/kg administered topically measured after 30 to 90 mins by recording blood flow for 30 mins by laser Doppler sonography method; assay type: functional, organism-based
Rattus norvegicus [11] = assay: Suppression of cinnamaldehyde-induced flare response in Sprague-Dawley rat skin at 50 to 100 mg/kg administered topically preincubated for 30 to 90 mins measured by recording blood flow for 30 mins by laser Doppler sonography method; assay type: functional, organism-based

T1 sequence (O75762 whole entry): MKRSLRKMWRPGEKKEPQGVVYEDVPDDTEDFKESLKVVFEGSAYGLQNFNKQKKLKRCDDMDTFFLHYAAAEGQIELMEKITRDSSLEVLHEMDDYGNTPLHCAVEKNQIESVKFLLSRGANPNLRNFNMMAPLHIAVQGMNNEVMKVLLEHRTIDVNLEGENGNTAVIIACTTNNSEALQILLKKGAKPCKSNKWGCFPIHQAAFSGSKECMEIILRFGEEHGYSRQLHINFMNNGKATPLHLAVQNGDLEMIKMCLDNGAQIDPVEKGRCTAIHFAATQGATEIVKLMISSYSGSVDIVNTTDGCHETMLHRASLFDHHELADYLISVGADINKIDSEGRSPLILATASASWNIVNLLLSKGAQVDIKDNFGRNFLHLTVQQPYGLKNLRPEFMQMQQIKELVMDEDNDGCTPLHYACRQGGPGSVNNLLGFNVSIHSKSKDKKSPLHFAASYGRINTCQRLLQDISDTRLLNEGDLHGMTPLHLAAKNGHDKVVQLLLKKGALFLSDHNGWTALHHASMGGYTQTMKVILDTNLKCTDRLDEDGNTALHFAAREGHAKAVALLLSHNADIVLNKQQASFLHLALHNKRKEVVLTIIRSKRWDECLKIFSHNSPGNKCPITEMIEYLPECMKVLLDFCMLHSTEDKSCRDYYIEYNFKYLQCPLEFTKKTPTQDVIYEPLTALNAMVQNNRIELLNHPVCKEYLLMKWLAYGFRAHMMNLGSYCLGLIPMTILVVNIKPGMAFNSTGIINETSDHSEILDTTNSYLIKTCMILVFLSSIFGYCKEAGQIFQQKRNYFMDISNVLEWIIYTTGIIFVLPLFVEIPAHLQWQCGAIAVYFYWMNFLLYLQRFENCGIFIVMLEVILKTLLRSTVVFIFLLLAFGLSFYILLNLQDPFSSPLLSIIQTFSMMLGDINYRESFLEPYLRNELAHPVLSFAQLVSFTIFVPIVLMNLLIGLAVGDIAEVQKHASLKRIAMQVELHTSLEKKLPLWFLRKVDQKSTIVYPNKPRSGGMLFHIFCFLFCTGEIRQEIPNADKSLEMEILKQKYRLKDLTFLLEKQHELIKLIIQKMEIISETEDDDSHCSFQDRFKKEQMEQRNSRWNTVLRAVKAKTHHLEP
Chain of Transient receptor potential cation channel subfamily A member 1 (Rattus norvegicus, UniProt Q6RI86) (Q6RI86 whole entry): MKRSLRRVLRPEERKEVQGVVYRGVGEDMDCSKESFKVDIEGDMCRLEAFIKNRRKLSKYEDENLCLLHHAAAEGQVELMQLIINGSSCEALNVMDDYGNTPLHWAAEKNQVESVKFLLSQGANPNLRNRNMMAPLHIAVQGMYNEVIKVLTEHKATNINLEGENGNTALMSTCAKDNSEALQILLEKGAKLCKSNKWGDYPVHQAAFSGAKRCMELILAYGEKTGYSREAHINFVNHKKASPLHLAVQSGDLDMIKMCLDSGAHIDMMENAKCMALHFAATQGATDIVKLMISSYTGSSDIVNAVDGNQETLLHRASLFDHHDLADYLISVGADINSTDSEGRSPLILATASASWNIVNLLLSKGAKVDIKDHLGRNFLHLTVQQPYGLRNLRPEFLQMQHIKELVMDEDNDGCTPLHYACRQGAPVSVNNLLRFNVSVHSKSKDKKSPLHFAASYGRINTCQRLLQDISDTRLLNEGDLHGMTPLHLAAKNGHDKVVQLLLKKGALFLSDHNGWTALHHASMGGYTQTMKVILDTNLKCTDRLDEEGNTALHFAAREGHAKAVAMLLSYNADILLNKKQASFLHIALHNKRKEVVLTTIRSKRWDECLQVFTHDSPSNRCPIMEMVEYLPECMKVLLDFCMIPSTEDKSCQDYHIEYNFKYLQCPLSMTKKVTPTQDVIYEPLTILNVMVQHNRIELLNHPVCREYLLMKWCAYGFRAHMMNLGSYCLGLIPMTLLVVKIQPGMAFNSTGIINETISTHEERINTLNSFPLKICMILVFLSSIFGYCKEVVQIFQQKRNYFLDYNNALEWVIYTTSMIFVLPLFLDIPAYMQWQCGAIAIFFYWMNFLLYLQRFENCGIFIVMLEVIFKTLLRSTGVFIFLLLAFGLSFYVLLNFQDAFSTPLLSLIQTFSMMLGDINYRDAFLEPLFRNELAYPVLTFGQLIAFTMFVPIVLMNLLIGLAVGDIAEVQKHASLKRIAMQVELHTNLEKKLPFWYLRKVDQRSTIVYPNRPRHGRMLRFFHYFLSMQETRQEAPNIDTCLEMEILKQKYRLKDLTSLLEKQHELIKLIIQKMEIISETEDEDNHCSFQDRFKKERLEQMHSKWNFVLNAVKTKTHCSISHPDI

SMILES | IC50 [4] [µM] | IC50 [5] [µM] | microsomal CLint at 10 µM [6] [µL/min/mg] | Papp [7] [×10⁻⁶ cm/s] | further results
O[C@]12CCCC[C@@H]1CCC[C@H]2Nc1ccc(F)cc1 | 0.01 |  |  |  | IC50 [1]: 0.008 µM; concentration at 24 h [2]: 86000 ng/g; concentration at 24 h [3]: 232000 ng/g
CCCC(C)(C)C(=O)NC[C@@H](Cc1ccccc1)N1CCC(O)(C(F)(F)F)CC1 |  | 0.071 |  |  | 
CC(C)(C(=O)NCC(Cc1ccccc1)N1CCC(O)(C(F)(F)F)CC1)C(F)(F)F (racemic) | 0.091 |  | 284 | 31 | 
O=C(NCC(Cc1ccc(F)cc1)N1CCC2(C1)CC2(F)F)C1(c2ccc(F)cc2)CCCC1 (racemic) |  | > 10 | > 320 | 0.3 | 
O=C(NCC(Cc1ccc(F)cc1)N1CCC2(CC1)COC2)C1(c2ccc(F)cc2)CCCC1 (racemic) |  | > 10 | > 320 |  | 
CC(C)(C)[C@H]1CC[C@H](C(=O)NCC(Cc2ccccc2)N2CCC(O)(C(F)(F)F)CC2)CC1 (mixture of isomers) | 0.101 |  | > 320 |  | 
O=C1CCC2(CCN(C(CNC(=O)C3(c4ccc(F)cc4)CC3)Cc3ccc(F)cc3)CC2)N1 (racemic) |  | > 10 | 168 |  | 
CCCC(C)(C)C(=O)NC[C@H](Cc1ccccc1)N1CCC(O)(C(F)(F)F)CC1 |  | 1.7 |  |  | 
O=C(NCC(Cc1ccc(F)cc1)N1CCC(O)C1)C1(c2ccc(F)cc2)CCCC1 (racemic) |  | > 10 | 170 |  | 
O=C(NCC(Cc1ccc(F)cc1)N1CCC(C(F)(F)F)C1)C1(c2ccc(F)cc2)CCCC1 (racemic) | 1.45 |  |  |  | 
O=C(NCC(Cc1ccc(F)cc1)N1CC2CCC1C2)C1(c2ccc(F)cc2)CC1 (racemic) |  | > 10 | > 320 |  | 
O=C(NCC(Cc1ccc(F)cc1)N1C2CCC1CC(O)(C(F)(F)F)C2)C1(c2ccc(F)cc2)CCCC1 (racemic) | 0.825 |  | > 320 |  | 
Cc1nc(C(=O)NCC(Cc2ccccc2)N2CCC(O)(C(F)(F)F)CC2)c(C(F)(F)F)o1 (racemic) |  | > 10 | 146 |  | 

Second part, led by results:

IC50 [4] [µM] | IC50 [5] [µM] | microsomal CLint at 10 µM [6] [µL/min/mg] | Papp [7] [×10⁻⁶ cm/s] | SMILES | further results
0.851 |  | > 320 |  | CC1(C(=O)NCC(Cc2ccccc2)N2CCC(O)(C(F)(F)F)CC2)CCCCC1 (racemic) | 
0.159 |  | > 320 |  | CC(C)c1csc(C(=O)NCC(Cc2ccccc2)N2CCC(O)(C(F)(F)F)CC2)n1 (racemic) | 
26.7 |  | 42 | 1 | CN1CCC(CC(CNC(=O)C2(c3ccc(Cl)cc3)CCCC2)N2CCC(O)(C(F)(F)F)CC2)CC1 (racemic) | 
> 1 |  | > 320 | < 1 | CC(C)C(CNC(=O)C1(c2ccc(Cl)cc2)CCCC1)N1CCC(O)(C(F)(F)F)CC1 (racemic) | 
0.083 |  | 285 | 8 | O=C(NCC(Cc1ccccc1)N1CCC(O)(C(F)(F)F)CC1)c1cc(C(F)(F)F)ccn1 (racemic) | 
1.9 |  | > 320 | 1 | O=C(NC[C@H](Cc1ccccc1)N1CCC(O)(C(F)(F)F)CC1)C1(c2ccc(Cl)cc2)CCCC1 | logD [8]: 4.7; Ratio [9]: 1
> 1 |  | 312 | < 1 | O=C(NCC(Cc1ccccc1)N1CCN(c2ccccn2)CC1)C1(c2ccc(Cl)cc2)CCCC1 (racemic) | 
> 1 |  | > 320 |  | CN(CC(Cc1ccccc1)N1CCC(O)(C(F)(F)F)CC1)C(=O)C1(c2ccc(Cl)cc2)CCCC1 (racemic) | 
0.309 |  |  |  | O=C(NCC(Cc1ccccc1)N1CCC(O)(C(F)(F)F)C1)C1(c2ccc(F)cc2)CCC1 (racemic) | 
> 3 |  | > 320 | 4 | O=C(NCC(c1ccccc1)N1CCC(O)(C(F)(F)F)CC1)C1(c2ccc(Cl)cc2)CC1 (racemic) | 
> 3 |  | > 320 | 3 | CN1CCN(C(CNC(=O)C2(c3ccc(Cl)cc3)CCCC2)Cc2ccccc2)CC1 (racemic) | 
0.474 |  | > 320 |  | O=C(NC[C@H](Cc1ccccc1)N1CCC(O)(C(F)(F)F)CC1)C1(c2ccc(Cl)cc2)CC1 | 
1 |  | 149 |  | O=C(NCC(Cc1ccccc1)N1CCC(O)(C(F)(F)F)CC1)C1(C(F)(F)F)CC1 (racemic) | 
0.673 |  | 238 | 6 | O=C(NCC(Cc1ccccc1)N1CCC(C(F)(F)F)CC1)C1(c2ccc(F)cc2)CCCC1 (racemic) | 
0.017 | 0.374 | > 320 | 1 | O=C(NCC(Cc1ccccc1)N1CCC(O)(C(F)(F)F)CC1)C1(c2ccc(Cl)cc2)CCCC1 (racemic) | Activity (Rattus norvegicus [10]): Active; Activity (Rattus norvegicus [11]): Active
0.073 |  | > 320 | 2 | O=C(NCC(Cc1ccccc1)N1CCC(O)(C(F)(F)F)CC1)C1(c2ccc(Cl)cc2)CC1 (racemic) | 
0.053 |  | > 320 |  | O=C(NC[C@@H](Cc1ccccc1)N1CCC(O)(C(F)(F)F)CC1)C1(c2ccc(Cl)cc2)CC1 | 
 | > 10 | > 320 |  | CC(C)(C)c1ccc(CC(=O)NCC(Cc2ccccc2)N2CCC(O)(C(F)(F)F)CC2)cc1 (racemic) | 
1.9 |  | > 320 | 3 | O=C(NCC(CC1CCOCC1)N1CCC(O)(C(F)(F)F)CC1)C1(c2ccc(Cl)cc2)CCCC1 (racemic) | 

Source: ChEMBL document CHEMBL4190175 (Medchemcomm, 2016)
